Results: US7915235B2, “High affinity ligands bind to clostridium difficile toxin A” (priority 2006, dated 2011)
Values joined by “and” are separate entries in the source; they are usually repeats but may differ in a detail not shown here. Equal entries are not always repeated.

Tests used:
[1] = biological target: Clostridium difficile toxin A (Clostridioides difficile, UniProt P16154); conditions: toxin A applied at 200 micrograms/ml; detected with PCG4 antibody and goat anti-mouse Alexa488
[2] = system: C. difficile-associated diarrhea (CDAD); conditions: oral metronidazole 500 mg TID; oral vancomycin 125 mg every 6 h; cited from earlier work
[3] = system: C. difficile associated diarrhea; conditions: cited from earlier work

Row | Compound | fluorescence (FL) signal [1] | also measured
1 | Gala1-3(Fuca1-2)Galb1-4(Fuca1-3)GlcNAcb- | 789 | –
2 | Gala1-3Galb1-4(Fuca1-3)GlcNAcb- | 1814 | –
3 | Cc1ncc([N+](=O)[O-])n1CCO [metronidazole] | – | response rates [2]: ~90%
4 | CC(=O)N[C@@H]1[C@@H](O)[C@H](O[C@@H]2O[C@H](CO)[C@H](O)[C@H](O[C@@H]3O[C@H](CO)[C@H](O)[C@H](O)[C@H]3O)[C@H]2O)[C@@H](CO)O[C@H]1O [Galb1-3Galb1-4GlcNAcb] | 172 | –
5 | CN[C@H](CC(C)C)C(=O)N[C@H]1C(=O)N[C@@H](CC(N)=O)C(=O)N[C@H]2C(=O)N[C@H]3C(=O)N[C@H](C(=O)N[C@H](C(=O)O)c4cc(O)cc(O)c4-c4cc3ccc4O)[C@H](O)c3ccc(c(Cl)c3)Oc3cc2cc(c3O[C@@H]2O[C@H](CO)[C@@H](O)[C@H](O)[C@H]2O[C@H]2C[C@](C)(N)[C@H](O)[C@H](C)O2)Oc2ccc(cc2Cl)[C@H]1O [vancomycin] | – | definitive recurrence rate ([3]; per protocol population with recurrent CDAD at enrollment, vancomycin or 6 g tolevamer): 27%; definitive recurrence rate confirmed by a positive toxin assay ([3]; per protocol population, 125 mg vancomycin QID or 6 g tolevamer): 19%; response rates [2]: ~90%
6 | CC(=O)N[C@@H]1[C@@H](O[C@@H]2O[C@@H](C)[C@@H](O)[C@@H](O)[C@@H]2O)[C@H](O[C@@H]2O[C@H](CO)[C@H](O)[C@H](O)[C@H]2O)[C@@H](CO)O[C@H]1O [Lewis×, Galb1-4[Fuca1-3]GlcNAcb] | 122 and 218 | –
7 | NeuAca2-3Galb1-3GlcNAcb1-3Galb1-4GlcNAcb- | 4435 | –
8 | GalNAca1-3(Fuca1-2)Galb1-4(Fuca1-3)GlcNAcb- | 327 | –
9 | NeuAca2-3Galb1-3(Fuca1-4)GlcNAcb1-3Galb1-4(Fuca1-3)GlcNAcb- | 14911 | –
10 | Galb1-3(Fuca1-4)GlcNAcb1-3Galb1-4GlcNAcb- | 29098 | –
11 | GalNAca1-3(Fuca1-2)Galb1-4GlcNAcb- | 188 | –
